≈ marks a conversion by molar mass, not a printed value. Read-outs that look alike come from different tables or passages of the source.
Legend:
Assay in all cases: Broth microdilution MIC, European bacteraemia isolates 2010-2012
[1] = tested on: E. faecalis; assay type: cell-based, Enterococcus faecalis; details: for % Resistant, CLSI / % Susceptible, CLSI: CLSI M100-S23 breakpoints; for MIC50 / MIC90: Enterococcus faecalis; for MIC50: read-out: MIC 50%; for MIC90: read-out: MIC 90%
Experimental: (§1) A total of 2,904 clinical strains responsible for documented bacteremia among unique hospitalized patients in 38 hospitals in 11 European Union countries. Israel, Russia, Turkey and Ukraine were included in this study (2010-2012). Isolates were submitted to a central monitoring laboratory (JMI Laboratories, North Liberty. Iowa. USA), following previously established protocols. Bacterial species identification was performed by using an automated system (Vitek®2; bioMèrieux, Hazelwood, Mo., USA) or conventional biochemical algorithms, as required.
(§2) Isolates were tested for susceptibility by broth microdilution methods following the Clinical and Laboratory Standards Institute (CLSI; M07-A9, 2012) document. Susceptibility testing was performed in cation-adjusted Mueller-Hinton broth (CA-MHB) using dry-form panels manufactured by Thermo Fisher Scientific, formerly TREK Diagnostics Systems/Sensititre (Cleveland. Ohio, USA). These panels provide results equivalent to the CLSI-approved broth microdilution method supplemented with 0.002% polysorbate-80.
(§3) Quality assurance was performed by concurrent testing of CLSI-recommended (M100-S23, 2013) strains: E. faecalis ATCC 29212 and S. aureus ATCC 29213. Interpretation of comparator MIC results was in accordance with published CLSI (M100-S23) and European Committee on Antimicrobial Susceptibility Testing (EUCAST, 2013) criteria.

[2] = tested on: E. faecium; assay type: cell-based, Enterococcus faecium; details: for % Resistant, CLSI / % Susceptible, CLSI: CLSI M100-S23 breakpoints; for % Resistant, EUCAST / % Susceptible, EUCAST: EUCAST 2013 breakpoints; for MIC90 / MIC50: Enterococcus faecium; for MIC90: read-out: MIC 90%; for MIC50: read-out: MIC 50%
Experimental: as §1, §2, §3

[3] = tested on: Coagulase-negative staphylococci; assay type: cell-based, coagulase-negative staphylococci (CoNS); details: Coagulase-negative staphylococci (646); for % Resistant, CLSI: CLSI M100-S23 breakpoints; for MIC50 / MIC90: Table 2; for MIC50: read-out: MIC 50%; for MIC90: read-out: MIC 90%
Experimental: as §1, §2, §3

[4] = tested on: S. aureus; assay type: cell-based; details: S. aureus Methicillin-resistant (1,708); for % Resistant, CLSI / % Susceptible, CLSI: CLSI M100-S23 breakpoints; for % Resistant, EUCAST / % Susceptible, EUCAST: EUCAST 2013 breakpoints; for MIC50 / MIC90: Staphylococcus aureus, Table 2; for MIC50: read-out: MIC 50%; for MIC90: read-out: MIC 90%
Experimental: as §1, §2, §3

[5] = E. faecalis (445), EUCAST 2013 breakpoints
[6] = E. faecium Vancomycin-resistant (VanA-phenotype) (153)
[7] = E. faecium Vancomycin-susceptible (257)
[8] = Table 2, E. faecium Vancomycin-resistant (VanA-phenotype) (153)
[9] = Table 2, E. faecium Vancomycin-susceptible (257)

| MIC50 ([1]; Table 2, E. faecalis (445)) [µg/mL] | MIC90 ([1]; Table 2, E. faecalis (445)) [µg/mL] | MIC90 [2, 8] [µg/mL] | MIC50 [2, 9] [µg/mL] | MIC90 [2, 9] [µg/mL] | MIC 50% [2, 8] [µg/mL] | MIC50 [3] [µg/mL] | MIC90 [3] [µg/mL] | MIC50 [4] [µg/mL] | Structure (SMILES) | % Resistant, CLSI ([1]; E. faecalis (445)) [%] | % Susceptible, CLSI ([1]; E. faecalis (445)) [%] | % Resistant, CLSI [2, 6] [%] | % Susceptible, CLSI [2, 6] [%] | % Resistant, CLSI [2, 7] [%] | % Susceptible, CLSI [2, 7] [%] | % Resistant, CLSI [3] [%] | % Resistant, CLSI [4] [%] | % Susceptible, CLSI [4] [%] | % Resistant, EUCAST [4] [%] | % Susceptible, EUCAST [4] [%] | further results |
| --- | --- | --- | --- | --- | --- | --- | --- | --- | --- | --- | --- | --- | --- | --- | --- | --- | --- | --- | --- | --- | --- |
| ≤ 1 | 2 (≈ 5.72 µM) | > 8 | > 8 | > 8 | >8 |  |  |  | CC1(C)S[C@@H]2[C@H](NC(=O)[C@H](N)c3ccccc3)C(=O)N2[C@H]1C(=O)O [Ampicillin] | 0.0 | 100.0 | 100.0 | 0.0 | 94.2 | 5.8 |  |  |  |  |  | % Resistant, EUCAST [1, 5]: 0.0%; % Susceptible, EUCAST [1, 5]: 99.6%; % susceptible ([1]; E. faecalis strains, criteria not stated): 99.6%; MIC 50% ([1]; Table 2, E. faecalis (445)): ≦1 mg/L; MIC Range ([1]; Table 2, E. faecalis (445), includes four VanA-phenotype strains): ≦1-8 mg/L; % Resistant, EUCAST [2, 6]: 100.0%; % Susceptible, EUCAST [2, 6]: 0.0%; % Resistant, EUCAST [2, 7]: 94.2%; % Susceptible, EUCAST [2, 7]: 5.4%; MIC Range [2, 8]: >8 µg/mL |
|  |  |  |  |  |  | ≤ 0.25 | > 2 | ≤ 0.25 | CCC[C@@H]1C[C@@H](C(=O)N[C@@H]([C@H]2O[C@H](SC)[C@H](O)[C@@H](O)[C@H]2O)[C@H](C)Cl)N(C)C1 [Clindamycin] |  |  |  |  |  |  | 26.0 | 40.3 | 59.1 | 40.9 | 58.9 | MIC90 [4]: > 2 µg/mL |
| > 4 | > 4 | > 4 | > 4 | > 4 | >4 | > 4 | > 4 | > 4 | CC[C@H]1OC(=O)[C@H](C)[C@@H](O[C@H]2C[C@@](C)(OC)[C@@H](O)[C@H](C)O2)[C@H](C)[C@@H](O[C@@H]2O[C@H](C)C[C@H](N(C)C)[C@H]2O)[C@](C)(O)C[C@@H](C)C(=O)[C@H](C)[C@@H](O)[C@]1(C)O [Erythromycin] | 54.8 | 8.1 | 98.1 | 0.0 | 91.4 | 3.5 | 65.1 | 68.0 | 29.6 | 69.1 | 29.8 | MIC90 [4]: > 4 µg/mL |
